Reference: patent US20250282726A1, “5-BROMO-2-HYDROXY-N'-[(1E)-1-(PYRIDIN-2-YL) ETHYLIDENE]BENZOHYDRAZIDE AS AN ANTI-CANCER AND ANTIMICROBIAL AGENT” (KING SAUD UNIVERSITY, priority 2024, published 2025)

How the values were obtained:
Assay type in all cases: cell-based
Bacillus Megnaterium = experiment: Antimicrobial study, diameter of inhibition zone; conditions: for Diameter of inhibition zones, B. megnaterium: Gram (+) bacteria
Experimental: (§1) Initially, compound L was tested against some Gram-negative and Gram-positive bacteria and the fungus strain.
(§2) Two gram-positive Staphylococcus aureus (cars-2) and Bacillus Megnaterium, two gram-negative Escherichia coli (carsgn-2) and Salmonella Typhi (JCM-1652) bacteria, and two fungal strains Trichoderma harzianum (carsm-2) and Aspergillus niger (carsm-3) were used in this study.

[1] = system: Escherichia coli (carsgn-2); experiment: Antimicrobial study, diameter of inhibition zone; conditions: for Diameter of inhibition zones, E. coli: Gram (−) bacteria
Experimental: as §1, §2

[2] = system: Salmonella Typhi (JCM-1652); experiment: Antimicrobial study, diameter of inhibition zone; conditions: for Diameter of inhibition zones, S. typhi: Gram (−) bacteria
Experimental: as §1, §2

[3] = system: Staphylococcus aureus (cars-2); experiment: Antimicrobial study, diameter of inhibition zone; conditions: for Diameter of inhibition zones, S. aureus: Gram (+) bacteria
Experimental: as §1, §2

[4] = system: Aspergillus niger (carsm-3); experiment: Antimicrobial study, diameter of inhibition zone; conditions: Fungi
Excerpt: as §2

[5] = system: Trichoderma harzianum (carsm-2); experiment: Antimicrobial study, diameter of inhibition zone; conditions: Fungi
Excerpt: as §2

[6] = system: hepatocellular carcinoma (HepG2); experiment: MTT in vitro cytotoxicity assay; conditions: Homo sapiens, read-out: % cell viability
Experimental: (§3) Two human cancer cell lines were utilized in the cytotoxicity assay. They were lung cancer (A549) and hepatocellular carcinoma (HepG2). A549 and HepG2 cells were cultured in a DMEM medium supplemented with 10% Fetal Bovine Serum (FBS), and 1% Antibiotic-Antimycotic at 37° C., with 5% CO2 in a 75 cm^2 tissue culture flask.
(§4) The conversion of yellow MTT to purple formazan crystals by mitochondrial dehydrogenase of viable cell enzymes was used to assess the magnitude of cellular cytotoxicity exerted by different concentrations of L as explained earlier Kazi et al. 2023 and modified by Kumar et al. 2022. Briefly, cancer cells were plated in 96-well plates (2×10^3 cells/well) in full cell growth medium and incubated for 24 h at 37° C. under a humidified atmosphere of 5% CO2. The cell medium was then replaced by a cell growth medium containing 5% FBS (DMEM medium), containing different concentrations of L. This experiment was performed in two batches. In the first batch, concentrations of L were 1.95, 3.9, 7.8, 15.6, 31.25, 62.5, 125 and 250 μg/ml with control (without any treatment). In the second batch, concentrations of L were 0.078, 0.156, 0.312, 0.625, 1.25, 2.5, 5.0, and 10.0 μg/mL with control (without any treatment). After 72 hours of incubation, medium in all test and control wells was substituted by 100 µL/well of MTT solution (0.5 mg/mL, in PBS) and incubated for a further 3 h at 37° C. Afterwards, the MTT solution was replaced with 100 μL isopropanol/well to dissolve the purple formazan crystals formed at the bottom of the wells, with shaking for at least 2 h at room temperature in dark. Subsequently, the color intensity in the wells was measured at 549 nm with a Bio-Tek microplate reader (ELX 800; Bio-Tek Instruments, Winooski, VT, USA). The results were analyzed in triplicates and the viability percentage was calculated. The data are presented as the percentages of viable cells in the test wells compared to those of the control group. The following equation was used to calculate the cell viability: […]
(§5) Liver and lung cancer cell lines were used to observe the antiproliferative effects of different concentrations of L as a growth-inhibiting study utilizing MTT-based viability assays. The MTT assay is based on mitochondrial activity. […] The results of both batches are admirable and far better than earlier reported publications. Therefore, we repeated this experiment with lung cancer cell lines and found almost similar results (FIGS. 9 and 10) as were with liver cancer cells.

lung cancer (A549) = experiment: MTT in vitro cytotoxicity assay; conditions: Homo sapiens, lung cancer cells, MTT 72 h
Experimental: as §3, §4, §5

In the case of `C/C(=N\NC(=O)c1cc(Br)ccc1O)c1ccccn1` [Compound L, 5-bromo-2-hydroxy-N′-[(1E)-1-(pyridin-2-yl)ethylidene]benzohydrazide], the “Diameter of inhibition zone” value (Bacillus Megnaterium; Bacillus Megaterium) was 20 mm, the “Diameter of inhibition zones, B. megnaterium” value (Bacillus Megnaterium) was 20 mm and the “Diameter of inhibition zone” value ([1]; Escherichia coli) was 17 mm. For the same compound, the “Diameter of inhibition zones, E. coli” value [1] was 17 mm, the “Diameter of inhibition zones, S. typhi” value [2] was 26 mm and the “Diameter of inhibition zone” value ([2]; Salmonella typhi) was 26 mm. For the same compound, the “Diameter of inhibition zones, S. aureus” value [3] was 24 mm, the “Diameter of inhibition zone” value ([3]; Staphylococcus aureus) was 24 mm and the “Diameter of inhibition zones, A. niger” value [4] was 12 mm. The “Diameter of inhibition zones, T. harzianum” value [5] was 12 mm, the viability at 0.078 µg/mL ([6]; HepG2, 72 h) was 34.4% and the viability at 1.95 µg/mL ([6]; HepG2, 72 h) was 14.8%. The viability at 0.156 µg/mL ([6]; HepG2, liver cancer cells, 0.156 μg/mL, MTT 72 h, FIG. 2) was 24.4%, the viability at 0.312 µg/mL ([6]; HepG2, liver cancer cells, 0.312 μg/mL, MTT 72 h, FIG. 2) was 28% and the viability at 0.625 µg/mL ([6]; HepG2, liver cancer cells, 0.625 μg/mL, MTT 72 h, FIG. 2) was 20.3%. For the same compound, the viability at 1.25 µg/mL ([6]; HepG2, liver cancer cells, 1.25 μg/mL, MTT 72 h, FIG. 2) was 20.2%, the viability at 2.5 µg/mL ([6]; HepG2, liver cancer cells, 2.5 μg/mL, MTT 72 h, FIG. 2) was 12.7% and the viability at 3.9 µg/mL ([6]; HepG2, liver cancer cells, 3.9 μg/mL, MTT 72 h, FIG. 3) was 12.2%. The viability at 5 µg/mL ([6]; HepG2, liver cancer cells, 5.0 μg/mL, MTT 72 h, FIG. 2) was 10.9%, the viability at 7.8 µg/mL ([6]; HepG2, liver cancer cells, 7.8 μg/mL, MTT 72 h, FIG. 3) was 9.57% and the viability at 10 µg/mL ([6]; HepG2, liver cancer cells, 10.0 μg/mL, MTT 72 h, FIG. 2) was 10.4%. The viability at 15.6 µg/mL ([6]; HepG2, liver cancer cells, 15.6 μg/mL, MTT 72 h, FIG. 3) was 8.96%, the viability at 31.25 µg/mL ([6]; HepG2, liver cancer cells, 31.25 μg/mL, MTT 72 h, FIG. 3) was 9.09% and the viability at 62.5 µg/mL ([6]; HepG2, liver cancer cells, 62.5 μg/mL, MTT 72 h, FIG. 3) was 8.86%. The viability at 125 µg/mL ([6]; HepG2, liver cancer cells, 125 μg/mL, MTT 72 h, FIG. 3) was 9.34%, the viability at 250 µg/mL ([6]; HepG2, liver cancer cells, 250 μg/mL, MTT 72 h, FIG. 3) was 9.38% and the viability at 0.078 µg/mL (lung cancer (A549); 0.078 μg/mL, FIG. 4, read-out: % cell viability) was 18.6%. The viability at 0.156 µg/mL (lung cancer (A549); 0.156 μg/mL, FIG. 4, read-out: % cell viability) was 13.2%, the viability at 0.312 µg/mL (lung cancer (A549); 0.312 μg/mL, FIG. 4, read-out: % cell viability) was 12.8% and the viability at 0.625 µg/mL (lung cancer (A549); 0.625 μg/mL, FIG. 4, read-out: % cell viability) was 12.3%. It also gave a viability at 1.25 µg/mL (lung cancer (A549); 1.25 μg/mL, FIG. 4, read-out: % cell viability) of 12.1%, a viability at 1.95 µg/mL (lung cancer (A549); 1.95 μg/mL, FIG. 5, read-out: % cell viability) of 18% and a viability at 2.5 µg/mL (lung cancer (A549); 2.5 μg/mL, FIG. 4, read-out: % cell viability) of 11.7%. The viability at 3.9 µg/mL (lung cancer (A549); 3.9 μg/mL, FIG. 5, read-out: % cell viability) was 16.7%, the viability at 5 µg/mL (lung cancer (A549); 5.0 μg/mL, FIG. 4, read-out: % cell viability) was 11% and the viability at 7.8 µg/mL (lung cancer (A549); 7.8 μg/mL, FIG. 5, read-out: % cell viability) was 12.5%. For the same compound, the viability at 10 µg/mL (lung cancer (A549); 10.0 μg/mL, FIG. 4, read-out: % cell viability) was 11.1%, the viability at 15.6 µg/mL (lung cancer (A549); 15.6 μg/mL, FIG. 5, read-out: % cell viability) was 11.8% and the viability at 31.25 µg/mL (lung cancer (A549); 31.25 μg/mL, FIG. 5, read-out: % cell viability) was 11.7%. The viability at 62.5 µg/mL (lung cancer (A549); 62.5 μg/mL, FIG. 5, read-out: % cell viability) was 11.4%, the viability at 125 µg/mL (lung cancer (A549); 125 μg/mL, FIG. 5, read-out: % cell viability) was 11.6% and the viability at 250 µg/mL (lung cancer (A549); 250 μg/mL, FIG. 5, read-out: % cell viability) was 11.6%.
With `CO/N=C(\C(=O)N[C@@H]1C(=O)N2C(C(=O)O)=C(CSc3nc(=O)c(=O)[nH]n3C)CS[C@H]12)c1csc(N)n1` [Ceftriaxone, reference compound] the “Diameter of inhibition zones, B. megnaterium” value (Bacillus Megnaterium) was 50.0 mm, the “Diameter of inhibition zones, E. coli” value [1] was 38.0 mm and the “Diameter of inhibition zones, S. typhi” value [2] was 44.0 mm. For the same compound, the “Diameter of inhibition zones, S. aureus” value [3] was 40.0 mm.
For `C[C@@H]1[C@H](O)[C@@H](C)/C=C/C=C/C=C/C=C/C=C/C=C/C=C/[C@H](O[C@@H]2O[C@H](C)[C@@H](O)[C@H](N)[C@@H]2O)C[C@@H]2O[C@](O)(C[C@@H](O)C[C@@H](O)[C@H](O)CC[C@@H](O)C[C@@H](O)CC(=O)O[C@H]1C)C[C@H](O)[C@H]2C(=O)O` [Amphotericin-B, reference compound], the “Diameter of inhibition zones, A. niger” value [4] was 8.0 mm and the “Diameter of inhibition zones, T. harzianum” value [5] was 17.0 mm.
